Common to all, as to format: functional
Experiment [1] concerns Staphylococcus aureus. Nature of the experiment: Growth inhibition of Staphylococcus aureus ATCC 25923 at 0.1 mg/ml after 24 hrs. The conditions noted are these: for inhibition at 100 µg/mL: ATCC 25923, 24 h.
Experiment [2] deals with Staphylococcus aureus. Description: Growth inhibition of Staphylococcus aureus 1199B expressing NorA at 0.1 mg/ml after 24 hrs.
Experiment [3] relates to Staphylococcus aureus. Nature of the experiment: Growth inhibition of Staphylococcus aureus RN4220 expressing MsrA at 0.1 mg/ml after 24 hrs. The conditions noted are these: for inhibition at 100 µg/mL: RN4220, 24 h.
Experiment [4] relates to Staphylococcus aureus. Description: Growth inhibition of Staphylococcus aureus RN4220 expressing MsrA at 0.1 mg/ml after 24 hrs in presence of 16 mg/L erythromycin.
In experiment [5] the test system is Staphylococcus aureus. Description: Growth inhibition of Staphylococcus aureus 1199B expressing NorA at 0.1 mg/ml after 24 hrs in presence of 4 mg/L ciprofloxacin.

Active and inactive are the calls of the source. The rule behind the calls is not given here.

As usually defined, the inhibition is the percentage by which the read-out fell short of the control. A word on the Inhibition: it is the drop in the measured response relative to a control, in per cent. Consider `c1ccc(OCc2cn(-c3cccnc3)nn2)cc1`, for which the inhibition at 100 µg/mL in experiment [1] stood at 22%; in experiment [2], 22%; in experiment [3], 30%. The Inhibition in experiment [4] came to 58%; in experiment [5], 56%.
`OCc1cn(Cc2ccccc2)nn1`: the inhibition at 100 µg/mL in experiment [1] is 6.1%; in experiment [2], 6%. The result in experiment [3], in experiment [4] and in experiment [5] was inactive.
With `O=C(O)c1cn(Cc2ccccc2)nn1`, the outcome in experiment [1] was inactive. Further, the inhibition at 100 µg/mL in experiment [2] worked out at 8%; in experiment [3] it was 31%. Moreover, the values for the Inhibition in experiment [4] and in experiment [5] were 22% and 9%, respectively.
Take `c1ccc(Cn2cc(COc3ccccc3)nn2)cc1`: the inhibition at 100 µg/mL came to 12% in experiment [1], 21% in experiment [2] and 32.7% in experiment [3]. The Inhibition in experiment [4] is recorded as 43%; in experiment [5] it was 20%.
For the molecule `COc1ccc(-n2cc(COc3ccccc3)nn2)cc1`, the results for the inhibition at 100 µg/mL in experiment [1], in experiment [2] and in experiment [3] were 10%, 11% and 21%, respectively. Moreover, the values for the Inhibition in experiment [4] and in experiment [5] were 39% and 16%, respectively.
`c1ccc(OCc2cn(-c3ccccc3)nn2)cc1`: the inhibition at 100 µg/mL in experiment [1] is 31%; in experiment [2], 11%; in experiment [3], 11%. Besides, the Inhibition in experiment [4] came out at 41%; in experiment [5], 26%.
For `O=C(O)c1cn(-c2cccnc2)nn1`, the inhibition at 100 µg/mL came to 14% in experiment [1], 23% in experiment [2] and 52.6% in experiment [3]. The Inhibition in experiment [4] stood at 78%; in experiment [5] it was 24%.
Turning to `O=C(O)c1cn(-c2ccccc2)nn1`, the outcome in experiment [1] was inactive. The inhibition at 100 µg/mL in experiment [2] was determined as 18%; in experiment [3] it was 54%. Also, the figures for the Inhibition in experiment [4] and in experiment [5] were 74.9% and 15%, respectively.
On to `C=CCn1cc(C(OCC)OCC)nn1`, for which the inhibition at 100 µg/mL amounted to 17% in experiment [1] and 6% in experiment [3]. In addition, the outcome in experiment [2] and in experiment [5] was inactive. Moreover, the Inhibition in experiment [4] is recorded as 40%.
Turning to `CCOC(OCC)c1cn(Cc2ccccc2)nn1`, the results for the inhibition at 100 µg/mL in experiment [1], in experiment [2] and in experiment [3] were 32%, 6% and 19%, respectively. Besides, the Inhibition in experiment [4] came out at 28%; in experiment [5], 8%.
Consider `CCCCCCCCn1cc(CN2C(=O)c3ccccc3C2=O)nn1`, for which the result in experiment [1] was inactive. Moreover, the values for the inhibition at 100 µg/mL in experiment [2] and in experiment [3] were 27.4% and 40%, respectively. The values for the Inhibition in experiment [4] and in experiment [5] were 24% and 25%, respectively.
Regarding `O=C1c2ccccc2C(=O)N1Cc1cn(-c2ccc([N+](=O)[O-])cc2)nn1`, the inhibition at 100 µg/mL in experiment [1] worked out at 22%; in experiment [2] it was 35%; in experiment [3], 48.1%. The values for the Inhibition in experiment [4] and in experiment [5] were 72% and 38%, respectively.
As for `C=CCn1cc(C(=O)O)nn1`, the result in experiment [1], in experiment [2], in experiment [3] and in experiment [4] was inactive. Moreover, the Inhibition in experiment [5] stood at 6%.
Take `O=C1c2ccccc2C(=O)N1Cc1cn(-c2ccccc2)nn1`: the outcome in experiment [1] was inactive. In addition, the inhibition at 100 µg/mL in experiment [2] turned out to be 17%; in experiment [3], 24%. The values for the Inhibition in experiment [4] and in experiment [5] were 41% and 17%, respectively.
As for `O=[N+]([O-])c1ccc(-n2cc(COc3ccccc3)nn2)cc1`, the values for the inhibition at 100 µg/mL in experiment [1], in experiment [2] and in experiment [3] were 27%, 18% and 34%, respectively. The Inhibition in experiment [4] is recorded as 56%; in experiment [5], 24%.
With `CCOC(OCC)c1cn(-c2cccnc2)nn1`, the result in experiment [1], in experiment [3], in experiment [4] and in experiment [5] was inactive. For the same molecule, at 100 µg/mL the inhibition in experiment [2] was 6.3%.
With `COC(=O)c1cn(Cc2ccccc2)nn1`, the inhibition at 100 µg/mL in experiment [1] amounted to 25%; in experiment [2], 15%; in experiment [3], 15%. The values for the Inhibition in experiment [4] and in experiment [5] were 33% and 18%, respectively.
As for `O=C1c2ccccc2C(=O)N1Cc1cn(-c2cccnc2)nn1`, the figures for the inhibition at 100 µg/mL in experiment [1], in experiment [2] and in experiment [3] were 24%, 22% and 46%, respectively. Moreover, the Inhibition in experiment [4] amounted to 71%; in experiment [5], 26.6%.
For the molecule `C=CCn1cc(CN2C(=O)c3ccccc3C2=O)nn1`, the result in experiment [1] was inactive. Besides, the inhibition at 100 µg/mL in experiment [2] turned out to be 18%; in experiment [3], 33%. Moreover, the Inhibition in experiment [4] is on record as 36%; in experiment [5] it was 23%.
Consider `COc1ccc(-n2cc(C(=O)O)nn2)cc1`, for which the outcome in experiment [1] was inactive. Further, the inhibition at 100 µg/mL in experiment [2] was found to be 21%; in experiment [3], 38%. For the same molecule, the Inhibition in experiment [4] is given as 45.8%; in experiment [5] it was 24%.
Turning to `C=CCn1cc(C(=O)OC)nn1`, the inhibition at 100 µg/mL in experiment [1] came to 21%; in experiment [2] it was 16%; in experiment [3], 44%. For the same molecule, the Inhibition in experiment [4] is 71%; in experiment [5] it was 16%.
As to `O=C1c2ccccc2C(=O)N1Cc1cn(Cc2ccccc2)nn1`, the outcome in experiment [1] was inactive. In addition, the inhibition at 100 µg/mL in experiment [2] came out at 57%; in experiment [3] it was 30%. Moreover, the Inhibition in experiment [4] is recorded as 44%; in experiment [5], 36%.
For the molecule `COc1ccc(-n2cc(CN3C(=O)c4ccccc4C3=O)nn2)cc1`, the inhibition at 100 µg/mL in experiment [1] amounted to 24%; in experiment [2], 15%; in experiment [3], 24.1%. Besides, the results for the Inhibition in experiment [4] and in experiment [5] were 48% and 18%, respectively.
As for `CCOC(OCC)c1cn(-c2ccc(OC)cc2)nn1`, the result in experiment [1] was inactive. Moreover, the inhibition at 100 µg/mL in experiment [2] came out at 11%; in experiment [3], 9%. Besides, the Inhibition is recorded as 25% in experiment [4] and 71% in experiment [5].
Regarding `CCCCCCCCCCCCn1cc(CN2C(=O)c3ccccc3C2=O)nn1`, the inhibition at 100 µg/mL amounted to 20% in experiment [1], 40% in experiment [2] and 43% in experiment [3]. Besides, the Inhibition is 65% in experiment [4] and 45% in experiment [5].
In the case of `COC(=O)c1cn(-c2cccnc2)nn1`, the inhibition at 100 µg/mL in experiment [1] came to 16%; in experiment [3], 11%. Also, the result in experiment [2] and in experiment [5] was inactive. In experiment [4], the Inhibition was found to be 78.3%.
`CCOC(OCC)c1cn(-c2ccccc2)nn1`: the outcome in experiment [1], in experiment [2], in experiment [3], in experiment [4] and in experiment [5] was inactive.
Consider `C=CCn1cc(COc2ccccc2)nn1`, for which the inhibition at 100 µg/mL turned out to be 16% in experiment [1], 15% in experiment [2] and 32% in experiment [3]. Also, the results for the Inhibition in experiment [4] and in experiment [5] were 38% and 20%, respectively.

Source of the values: ChEMBL document CHEMBL1142347, “Synthesis and antibiotic activity of a small molecules library of 1,2,3-triazole derivatives” (2008).
